Reference: ChEMBL document CHEMBL1201862, “PubChem BioAssay data set” (2004)
Calls of active or inactive are those of the source.

Tests used:
Cytochrome P450 2D6 = Cytochrome P450 2D6 (Homo sapiens, UniProt P10635);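 note: CYP2D6 member of a cytochrome P450 panel assay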
Cytochrome P450 2C9 = Cytochrome P450 2C9 (Homo sapiens, UniProt P11712)
BJ [1] = assay: BJ-TERT fibroblast viability loss – cell-based, RAS-independent, luminescence, dose response (AID 1933); format: functional; settings: Homo sapiens
BJ [2] = assay: cells; format: functional, cell-based; settings: Homo sapiens
BJ [3] = assay: BJ-TERT-LT-ST fibroblast viability loss – cell-based, RAS-independent, luminescence, dose response (AID 1935); format: functional; settings: Homo sapiens;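 note: BJ fibroblasts immortalized with TERT plus LT and ST oncogenes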
[4] = DRD fibroblast viability loss – cell-based, non-viral oncogenic, luminescence, dose response (AID 1934); format: functional; settings: Homo sapiens
[5] = target: T1, Microphthalmia-associated transcription factor (Homo sapiens, UniProt O75030); assay: reducers of TRPM1 reporter luminescence, concentration series – cell-based, SK-MEL-5, cherry-picked, set 3, MITF inhibitor project, dose response (AID 493073); format: functional;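 note: SK-MEL-5 melanoma cells with luciferase driven by the MITF target TRPM1 promoter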
T1 sequence (O75030 whole entry): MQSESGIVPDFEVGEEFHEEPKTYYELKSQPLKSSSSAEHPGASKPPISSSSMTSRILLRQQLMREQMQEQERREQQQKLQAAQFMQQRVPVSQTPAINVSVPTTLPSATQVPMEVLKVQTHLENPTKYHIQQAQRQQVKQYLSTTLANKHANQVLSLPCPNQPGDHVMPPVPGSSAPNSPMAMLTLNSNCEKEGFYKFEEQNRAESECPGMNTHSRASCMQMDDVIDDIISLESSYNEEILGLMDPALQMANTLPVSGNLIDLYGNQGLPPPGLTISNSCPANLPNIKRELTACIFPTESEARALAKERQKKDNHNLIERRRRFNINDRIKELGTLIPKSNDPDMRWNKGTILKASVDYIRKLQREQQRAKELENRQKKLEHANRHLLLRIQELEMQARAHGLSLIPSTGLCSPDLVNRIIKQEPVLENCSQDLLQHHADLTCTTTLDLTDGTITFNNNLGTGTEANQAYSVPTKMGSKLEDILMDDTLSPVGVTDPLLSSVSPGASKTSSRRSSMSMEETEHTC

Paired box protein Pax-8 = Paired box protein Pax-8 (Homo sapiens, UniProt Q06710); assay: PAX8 transcriptional activity inhibition in RMG-I – RMG-I cells, luciferase, cherry-pick, dose response (AID 687027); format: functional, cell-based;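 note: luciferase reporter driven by Pax8 target thyroperoxidase promoter measured by SteadyGlo luminescence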
Cytochrome P450 2C19 = Cytochrome P450 2C19 (Homo sapiens, UniProt P33261); assay: Cytochrome panel assay with activity outcomes. Panel member name: p450-cyp2c19 Compounds with AC50 equal or less than 10 uM are considered active; format: functional; settings: read-out: AC50
[6] = target: T2, Corticotropin-releasing factor receptor 2/Corticotropin-releasing factor-binding protein (Homo sapiens, UniProt P24387+Q13324); assay: activators of CRF receptor 2 with binding protein – uHTS hits, confirmation (AID 602473); format: functional; settings: read-out: EC50_Mean
T2 sequence (Q13324 whole entry): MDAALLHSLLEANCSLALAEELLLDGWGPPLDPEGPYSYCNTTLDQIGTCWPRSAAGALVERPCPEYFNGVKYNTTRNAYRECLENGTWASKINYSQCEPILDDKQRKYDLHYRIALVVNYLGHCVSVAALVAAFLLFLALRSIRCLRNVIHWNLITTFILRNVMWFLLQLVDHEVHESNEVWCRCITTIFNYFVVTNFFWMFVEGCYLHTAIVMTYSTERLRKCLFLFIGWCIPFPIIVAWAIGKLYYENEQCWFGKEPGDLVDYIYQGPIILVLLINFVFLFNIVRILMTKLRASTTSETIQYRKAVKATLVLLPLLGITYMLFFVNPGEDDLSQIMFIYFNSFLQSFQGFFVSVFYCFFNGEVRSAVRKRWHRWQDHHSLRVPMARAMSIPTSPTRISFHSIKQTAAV
T2 sequence (P24387 whole entry): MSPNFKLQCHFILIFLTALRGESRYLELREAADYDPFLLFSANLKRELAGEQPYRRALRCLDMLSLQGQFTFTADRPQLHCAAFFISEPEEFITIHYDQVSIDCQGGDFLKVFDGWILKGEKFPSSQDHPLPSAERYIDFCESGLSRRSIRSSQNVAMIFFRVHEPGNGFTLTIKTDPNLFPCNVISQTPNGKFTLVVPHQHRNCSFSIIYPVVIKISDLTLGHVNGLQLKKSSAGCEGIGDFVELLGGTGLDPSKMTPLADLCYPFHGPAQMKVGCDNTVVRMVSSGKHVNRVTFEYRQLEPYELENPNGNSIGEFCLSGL

[7] = target: T3, Heat shock factor protein 1 (Mus musculus, UniProt P38532); assay: decrease of HSF1-responsive luciferase luminescence – cell-based, NIH3T3, dose retest, confirmation (AID 2382); format: functional;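 note: NIH3T3 fibroblasts with HSF1-driven luciferase reporter stressed by proteasome inhibitor MG132; luminescence from HSF1-driven luciferase expression after 8 hours of MG132 stress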
T3 sequence (P38532 whole entry): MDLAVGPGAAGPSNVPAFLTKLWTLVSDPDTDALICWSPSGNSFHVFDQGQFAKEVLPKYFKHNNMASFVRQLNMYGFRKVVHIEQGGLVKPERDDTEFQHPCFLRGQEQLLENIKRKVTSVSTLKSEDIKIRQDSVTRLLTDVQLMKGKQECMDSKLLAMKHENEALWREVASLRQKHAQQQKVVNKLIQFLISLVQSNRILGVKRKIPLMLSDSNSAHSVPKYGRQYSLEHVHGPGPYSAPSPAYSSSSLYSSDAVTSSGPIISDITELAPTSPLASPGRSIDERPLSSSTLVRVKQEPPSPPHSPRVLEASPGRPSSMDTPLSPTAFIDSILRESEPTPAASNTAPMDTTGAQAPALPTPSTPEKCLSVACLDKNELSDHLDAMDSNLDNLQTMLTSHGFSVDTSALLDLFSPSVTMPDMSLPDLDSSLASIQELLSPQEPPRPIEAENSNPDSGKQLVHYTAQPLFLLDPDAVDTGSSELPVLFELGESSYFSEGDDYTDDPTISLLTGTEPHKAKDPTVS

Leucine aminopeptidase = target: T4, Leucine aminopeptidase (Plasmodium falciparum 3D7, UniProt Q8IL11); assay: P. falciparum M17LAP inhibitors, primary screen, biochemical, fluorogenic H-Leu-NHMec substrate, 1536-well (AID 1619); format: functional
T4 sequence (Q8IL11 whole entry): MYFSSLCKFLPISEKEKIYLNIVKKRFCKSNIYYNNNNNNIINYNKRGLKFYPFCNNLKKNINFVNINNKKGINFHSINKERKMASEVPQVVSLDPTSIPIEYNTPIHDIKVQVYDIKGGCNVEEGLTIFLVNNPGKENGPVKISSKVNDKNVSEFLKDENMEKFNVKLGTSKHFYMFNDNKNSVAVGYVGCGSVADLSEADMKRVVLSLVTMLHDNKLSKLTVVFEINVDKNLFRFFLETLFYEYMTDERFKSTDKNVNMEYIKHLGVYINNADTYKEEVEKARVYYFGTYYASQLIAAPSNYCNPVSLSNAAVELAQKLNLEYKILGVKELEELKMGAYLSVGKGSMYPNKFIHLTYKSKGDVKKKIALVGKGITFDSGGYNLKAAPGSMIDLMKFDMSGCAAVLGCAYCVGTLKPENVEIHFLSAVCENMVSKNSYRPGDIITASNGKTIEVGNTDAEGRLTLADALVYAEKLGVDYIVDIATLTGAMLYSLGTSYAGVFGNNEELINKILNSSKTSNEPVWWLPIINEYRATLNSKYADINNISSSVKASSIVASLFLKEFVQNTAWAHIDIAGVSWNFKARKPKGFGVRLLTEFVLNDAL

INS1 = assay: INS-1E survival protection against cytokine death – cell-based, luminescence, retest, dose response (AID 449756); format: functional; settings: Rattus norvegicus;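 note: cell death triggered by IL-1 beta plus TNF-alpha plus IFN-gamma mixture; protective hits raise ATP signal compared with cytokine alone wells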
[8] = target: T5, Replicative DNA helicase DnaB (Mycobacterium tuberculosis, UniProt P9WMR3); assay: DnaB intein splicing inhibitors, dose response, biochemical, cell-free fluorescence (AID 449749); format: functional
T5 sequence (P9WMR3 whole entry): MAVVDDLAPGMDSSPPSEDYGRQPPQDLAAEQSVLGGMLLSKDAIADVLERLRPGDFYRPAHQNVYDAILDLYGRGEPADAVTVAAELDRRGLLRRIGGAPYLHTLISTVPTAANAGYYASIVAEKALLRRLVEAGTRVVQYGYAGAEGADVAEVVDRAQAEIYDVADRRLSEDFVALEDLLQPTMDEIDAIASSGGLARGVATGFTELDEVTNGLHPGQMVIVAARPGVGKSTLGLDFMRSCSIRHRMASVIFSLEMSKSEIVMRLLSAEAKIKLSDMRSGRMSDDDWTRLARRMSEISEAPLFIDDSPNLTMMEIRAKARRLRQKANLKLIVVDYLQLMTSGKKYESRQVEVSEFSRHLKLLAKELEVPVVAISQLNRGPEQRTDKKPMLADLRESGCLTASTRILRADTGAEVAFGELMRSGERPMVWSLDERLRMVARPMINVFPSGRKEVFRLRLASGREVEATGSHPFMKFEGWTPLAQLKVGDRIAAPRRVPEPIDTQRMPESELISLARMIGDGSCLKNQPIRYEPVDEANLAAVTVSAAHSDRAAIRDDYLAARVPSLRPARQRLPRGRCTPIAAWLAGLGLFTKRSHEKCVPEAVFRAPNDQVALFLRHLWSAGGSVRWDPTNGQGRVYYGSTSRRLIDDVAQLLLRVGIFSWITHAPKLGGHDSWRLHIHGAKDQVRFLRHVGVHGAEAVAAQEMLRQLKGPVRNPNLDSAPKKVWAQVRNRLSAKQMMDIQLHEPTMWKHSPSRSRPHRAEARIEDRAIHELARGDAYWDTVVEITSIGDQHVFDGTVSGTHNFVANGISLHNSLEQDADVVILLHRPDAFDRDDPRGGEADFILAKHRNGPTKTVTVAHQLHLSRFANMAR

Protein RecA = target: T6, Protein RecA (Mycobacterium tuberculosis, UniProt P9WHJ3); assay: Fluorescence Cell-Free Homogeneous Dose Retest to Identify Inhibitors of RecA-Intein Splicing Activity. [Related pubchem assays (depositor defined):AID2097, AID2223, AID489010, AID492950]; format: functional
T6 sequence (P9WHJ3 whole entry): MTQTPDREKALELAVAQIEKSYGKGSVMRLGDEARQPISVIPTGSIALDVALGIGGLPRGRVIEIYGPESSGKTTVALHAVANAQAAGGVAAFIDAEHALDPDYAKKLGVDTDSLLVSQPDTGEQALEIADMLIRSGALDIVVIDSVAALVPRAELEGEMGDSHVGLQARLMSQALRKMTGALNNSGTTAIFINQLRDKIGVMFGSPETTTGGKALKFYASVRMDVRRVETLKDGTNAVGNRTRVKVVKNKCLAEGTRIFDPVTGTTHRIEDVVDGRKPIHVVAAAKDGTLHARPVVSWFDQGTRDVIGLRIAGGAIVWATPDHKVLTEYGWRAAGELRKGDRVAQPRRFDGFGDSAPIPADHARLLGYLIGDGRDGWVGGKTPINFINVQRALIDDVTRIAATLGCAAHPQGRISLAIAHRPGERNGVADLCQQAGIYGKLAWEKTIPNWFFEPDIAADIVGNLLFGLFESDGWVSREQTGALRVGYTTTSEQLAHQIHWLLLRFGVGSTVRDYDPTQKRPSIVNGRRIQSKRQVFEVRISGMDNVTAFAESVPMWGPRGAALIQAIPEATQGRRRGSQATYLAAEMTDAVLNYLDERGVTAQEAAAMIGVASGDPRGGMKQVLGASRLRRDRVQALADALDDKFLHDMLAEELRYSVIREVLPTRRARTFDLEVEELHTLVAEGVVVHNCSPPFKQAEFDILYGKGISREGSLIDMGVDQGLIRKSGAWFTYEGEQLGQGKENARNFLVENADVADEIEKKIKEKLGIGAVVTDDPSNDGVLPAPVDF

Cytochrome P450 2C9, sequence (P11712 whole entry): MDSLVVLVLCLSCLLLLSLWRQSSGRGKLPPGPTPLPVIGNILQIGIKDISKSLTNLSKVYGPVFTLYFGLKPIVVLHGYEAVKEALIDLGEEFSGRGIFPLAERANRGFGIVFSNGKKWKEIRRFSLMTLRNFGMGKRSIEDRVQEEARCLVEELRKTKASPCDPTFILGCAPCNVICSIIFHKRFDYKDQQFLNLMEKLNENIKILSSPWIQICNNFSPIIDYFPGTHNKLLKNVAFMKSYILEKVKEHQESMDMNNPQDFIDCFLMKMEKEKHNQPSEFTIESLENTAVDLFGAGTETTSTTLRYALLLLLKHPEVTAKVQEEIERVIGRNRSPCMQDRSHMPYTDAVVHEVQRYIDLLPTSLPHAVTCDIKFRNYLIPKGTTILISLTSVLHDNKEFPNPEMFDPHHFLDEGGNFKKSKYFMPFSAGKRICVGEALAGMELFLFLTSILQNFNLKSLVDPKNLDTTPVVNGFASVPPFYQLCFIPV
Cytochrome P450 2C19, sequence (P33261 whole entry): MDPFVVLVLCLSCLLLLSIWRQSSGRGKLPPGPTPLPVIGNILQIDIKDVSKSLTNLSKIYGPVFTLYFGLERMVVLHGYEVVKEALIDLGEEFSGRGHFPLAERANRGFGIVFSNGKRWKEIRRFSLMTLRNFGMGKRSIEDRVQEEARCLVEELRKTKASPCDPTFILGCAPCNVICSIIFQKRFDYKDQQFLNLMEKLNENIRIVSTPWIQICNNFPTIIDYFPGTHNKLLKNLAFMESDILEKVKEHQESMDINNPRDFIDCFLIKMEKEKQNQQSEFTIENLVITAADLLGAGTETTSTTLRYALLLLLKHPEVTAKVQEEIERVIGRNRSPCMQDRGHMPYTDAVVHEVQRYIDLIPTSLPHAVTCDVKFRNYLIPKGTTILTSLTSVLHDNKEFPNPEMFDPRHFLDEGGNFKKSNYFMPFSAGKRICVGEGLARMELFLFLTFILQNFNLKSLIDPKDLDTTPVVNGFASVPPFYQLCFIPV
Paired box protein Pax-8, sequence (Q06710 whole entry): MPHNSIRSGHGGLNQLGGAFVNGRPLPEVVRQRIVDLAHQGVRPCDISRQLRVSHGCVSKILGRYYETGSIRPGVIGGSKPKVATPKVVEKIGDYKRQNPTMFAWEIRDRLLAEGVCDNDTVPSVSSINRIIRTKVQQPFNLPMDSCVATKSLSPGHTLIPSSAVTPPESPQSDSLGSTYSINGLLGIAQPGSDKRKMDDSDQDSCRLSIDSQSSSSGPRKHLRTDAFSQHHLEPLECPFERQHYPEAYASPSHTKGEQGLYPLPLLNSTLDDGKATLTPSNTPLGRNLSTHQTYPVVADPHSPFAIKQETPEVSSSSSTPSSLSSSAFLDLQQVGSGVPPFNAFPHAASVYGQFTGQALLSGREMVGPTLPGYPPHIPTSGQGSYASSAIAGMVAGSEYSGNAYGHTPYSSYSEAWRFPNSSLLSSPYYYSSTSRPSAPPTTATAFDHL
Cytochrome P450 2D6, sequence (P10635 whole entry): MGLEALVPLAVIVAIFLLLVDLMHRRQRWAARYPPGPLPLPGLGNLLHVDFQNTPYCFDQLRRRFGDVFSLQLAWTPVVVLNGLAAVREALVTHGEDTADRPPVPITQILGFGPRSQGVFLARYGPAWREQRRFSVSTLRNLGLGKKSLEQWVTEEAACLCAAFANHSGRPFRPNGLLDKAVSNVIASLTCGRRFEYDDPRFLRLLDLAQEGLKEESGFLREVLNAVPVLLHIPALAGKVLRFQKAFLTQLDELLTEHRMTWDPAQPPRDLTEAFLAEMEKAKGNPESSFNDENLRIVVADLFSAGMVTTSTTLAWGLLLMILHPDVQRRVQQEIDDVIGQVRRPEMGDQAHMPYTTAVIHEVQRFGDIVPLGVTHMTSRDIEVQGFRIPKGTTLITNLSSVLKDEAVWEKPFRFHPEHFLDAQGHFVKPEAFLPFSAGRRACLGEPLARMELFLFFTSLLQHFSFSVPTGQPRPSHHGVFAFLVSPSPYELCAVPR

## Cc1c(C)n(C)c2ccc(C(=O)Nc3cccc4ccccc34)cc12
Cytochrome P450 2D6
  AC50: 11.2 µM (inconclusive)
Cytochrome P450 2C9
  AC50: inconclusive

## C=CCSc1nc(NC)c2sccc2n1
Cytochrome P450 2C9
  AC50: inconclusive

## COc1cc2c(c(OC)c1OC)-c1ccc(OC)c(=O)cc1C(NC(C)=O)CC2 (stereo not drawn)
BJ [1]
  EC50: 0.348 µM (active)
BJ [2]
  EC50: 0.627 µM (inconclusive)
BJ [3]
  EC50: 0.249 µM (active)
[4]
  EC50: 0.351 µM (active)
[5]
  AC50: 0.056 µM (active)
Paired box protein Pax-8
  AC50: < 0.26 µM (active)

## Cc1cc2c(C(F)(F)F)cc(=O)oc2c2c1NCCC2
Cytochrome P450 2C19
  AC50: 1.26 µM (inconclusive)
[6]
  EC50: 1.12 µM (active)
Cytochrome P450 2C9
  AC50: inconclusive

## CC1(C)Cc2c(sc(NC(=O)c3ccc4ncsc4c3)c2C(N)=O)C(C)(C)N1
[7]
  EC50: > 195 µM (not active)
[5]
  AC50: 10.1 µM (active)

## O=C(O)CC(Cc1ccccc1)C(=O)Nc1ccc([N+](=O)[O-])cc1 (stereo not drawn)
Leucine aminopeptidase
  IC50: 15.7 µM (active)

## COc1ccc(CNC(=O)C2CC(c3cccc([N+](=O)[O-])c3)=NO2)cc1 (stereo not drawn)
Cytochrome P450 2C9
  AC50: inconclusive

## O=C(CN1C(=O)c2ccccc2C1=O)NCC1COc2ccccc2O1 (stereo not drawn)
Leucine aminopeptidase
  IC50: 15.6 µM (active)

## Cc1cc(C(C)(C)C)cc(C)c1C[n+]1c2n(c3ccc(C(F)(F)F)cc31)CCCCC2
[5]
  AC50: 7.55 µM (active)
INS1
  AC50: 3.43 µM (active)
Paired box protein Pax-8
  AC50: 4.37 µM (active)

## CC(=O)NS(=O)(=O)c1ccc(/N=c2\ssc3c2-c2cc(C)c(C)cc2NC3(C)C)cc1
Leucine aminopeptidase
  IC50: 3.72 µM (active)

## CN(C)c1ccc(/C=N/NC(=O)c2nonc2N)cc1[N+](=O)[O-]
Leucine aminopeptidase
  IC50: 56.1 µM (active)

## COc1ccccc1CNC(=O)C1CCN(S(=O)(=O)N2CC(C)CC(C)C2)CC1 (stereo not drawn)
Cytochrome P450 2C19
  AC50: 39.8 µM (inconclusive)
Cytochrome P450 2C9
  AC50: inconclusive

## CCc1cccc(NC(=O)CSCc2cc(O)[nH]n2)c1
Leucine aminopeptidase
  IC50: 25.9 µM (active)
[8]
  AC50: 3.37 µM (active)
Protein RecA
  EC50: 2.37 µM (active)

## CC(C)C(=O)Nc1nnc(SCC(=O)Nc2ccc3c(c2)OCCO3)s1
Leucine aminopeptidase
  IC50: 18.9 µM (active)

## CCOc1ccc(NC(=O)Cc2ccccc2)c([N+](=O)[O-])c1
Leucine aminopeptidase
  IC50: 2.92 µM (active)

## CCOc1ccc(-n2c(O)nnc2SCC(=O)Nc2ccccc2C)cc1
Cytochrome P450 2C9
  AC50: inconclusive

## CCOC(=O)C1=NOC(CNC(=O)C2=NOC(CNC(=O)c3c(-c4ccccc4Cl)noc3C)C2)C1 (stereo not drawn)
Cytochrome P450 2C19
  AC50: 20 µM (inconclusive)
Cytochrome P450 2C9
  AC50: inconclusive

## N#Cc1c(NC(=O)Cn2cnc3ccccc3c2=O)oc(-c2ccccc2)c1-c1ccccc1
Leucine aminopeptidase
  IC50: 1.47 µM (active)
